According to patent publication US20260125400A1, “TYK2 DEGRADERS AND USES THEREOF” (Kymera Therapeutics, Inc., priority 2023, published 2026):
Like-named read-outs stand apart in the source and are kept apart here.

Molecular target: T1, TYK2 (Homo sapiens, UniProt P29597)
T1 construct: Degradation of TYK2 in cells was quantitatively measured using Meso Scale Discovery (MSD) technology; endogenous in cells; host or cells: OCI-LY10
Experiment: TYK2 MSD degradation in OCI-LY10 cells
Format: cell-based
Settings: 4 to 24 hours incubation; for DC50: read-out: TYK2 MSD OCI-LY10 Rel-DC50
Method in brief: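 OCI-LY10 cells were treated with 9-dose 1:3 series (top 1 to 10 μM final) for 4 to 24 hours at 37° C. Lysate TYK2 quantified by MSD sandwich immunoassay; DC50 and Dmax from four-parameter inhibitor vs. response fit.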

[1] = TYK2 degradation in OCI-LY10 cells

T1 sequence (P29597 whole entry): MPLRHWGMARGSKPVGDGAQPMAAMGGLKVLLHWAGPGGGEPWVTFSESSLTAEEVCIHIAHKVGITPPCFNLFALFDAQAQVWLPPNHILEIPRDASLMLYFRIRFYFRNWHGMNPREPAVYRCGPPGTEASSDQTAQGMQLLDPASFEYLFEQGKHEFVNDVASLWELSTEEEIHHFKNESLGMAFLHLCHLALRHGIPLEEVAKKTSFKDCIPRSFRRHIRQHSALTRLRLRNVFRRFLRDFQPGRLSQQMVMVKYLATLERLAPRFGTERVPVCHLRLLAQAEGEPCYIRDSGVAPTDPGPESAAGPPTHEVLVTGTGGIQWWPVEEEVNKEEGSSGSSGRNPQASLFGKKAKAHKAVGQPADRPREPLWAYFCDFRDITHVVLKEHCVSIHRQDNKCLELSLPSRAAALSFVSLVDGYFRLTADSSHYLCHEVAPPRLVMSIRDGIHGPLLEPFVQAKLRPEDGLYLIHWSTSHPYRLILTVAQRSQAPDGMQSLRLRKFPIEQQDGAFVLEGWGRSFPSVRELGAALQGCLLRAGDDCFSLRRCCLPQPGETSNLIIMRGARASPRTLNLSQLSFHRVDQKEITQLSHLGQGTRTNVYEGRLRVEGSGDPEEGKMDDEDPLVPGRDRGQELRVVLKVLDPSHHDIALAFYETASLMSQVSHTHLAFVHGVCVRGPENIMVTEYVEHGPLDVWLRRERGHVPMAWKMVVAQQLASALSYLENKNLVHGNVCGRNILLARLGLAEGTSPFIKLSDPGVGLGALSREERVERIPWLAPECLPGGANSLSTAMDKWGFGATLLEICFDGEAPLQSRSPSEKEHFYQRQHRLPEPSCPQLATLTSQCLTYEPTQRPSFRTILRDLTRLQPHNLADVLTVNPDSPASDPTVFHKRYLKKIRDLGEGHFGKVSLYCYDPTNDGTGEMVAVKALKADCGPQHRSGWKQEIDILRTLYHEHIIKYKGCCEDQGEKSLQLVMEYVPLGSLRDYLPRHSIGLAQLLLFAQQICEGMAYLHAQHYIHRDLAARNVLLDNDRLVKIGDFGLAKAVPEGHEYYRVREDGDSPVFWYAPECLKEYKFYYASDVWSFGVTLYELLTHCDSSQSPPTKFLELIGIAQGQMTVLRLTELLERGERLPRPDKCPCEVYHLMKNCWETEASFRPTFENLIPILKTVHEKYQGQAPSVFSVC

SMILES	TYK2 MSD OCI-LY10 Dmax % [1]	DC50 [1] [nM]	TYK2 MSD OCI-LY10 Dmax % (OCI-LY10 cells)	DC50 (OCI-LY10 cells) [nM]	Dmax [1] [%]
CNc1cc(N2CCc3c(-c4ncc(CN5CCC6(CCN(C(=O)c7cc(C)c(Cl)c(N8CCC(=O)NC8=O)c7)CC6)C(F)(F)C5)cc4F)cccc32)nn2c(C(=O)N[C@@H]3C[C@@H]3F)cnc12 [I-818]	B (B (90 to >75%))	< 10	–	–	–
CNc1cc(N2CCc3c(CN4CCC(N5CCC6(CCN(C(=O)c7cc(F)c(Cl)c(N8CCC(=O)NC8=O)c7)CC6)CC5)C(F)(F)C4)cccc32)nn2c(C(=O)N[C@@H]3C[C@@H]3F)cnc12 (stereo partly shown) [I-712]	–	–	B (B (90 to >75%))	< 1	–
CNc1cc(-c2cn(C3CCN(C(=O)c4ccc(Cl)c(N5CCC(=O)NC5=O)c4)CC3)c3ccccc23)nn2c(C(=O)N[C@@H]3C[C@@H]3F)cnc12 [I-798]	D (D (<50%))	> 100	–	–	–
CNc1cc(N2CCc3c(-c4ncc(CN5CC6(CCN(C(=O)c7cc(N8CCC(=O)NC8=O)c(F)cn7)CC6(F)F)C5)cc4F)cc(F)cc32)nn2c(C(=O)N[C@@H]3C[C@@H]3F)cnc12 [I-1153]	B (B (90 to >75%))	< 10	–	–	–
CNc1cc(N2CCc3c(-c4ccc(OC5CC6(CCN(C(=O)c7ccc(Cl)c(N8CCC(=O)NC8=O)c7)CC6)C5)cn4)cccc32)nn2c(C(=O)N[C@@H]3C[C@@H]3F)cnc12 [I-76]	B (B (90 to >75%))	< 1	–	–	–
CNc1cc(N2CCc3c(-c4ccc(CN5CC6(CCN(C(=O)c7ccc(N8CCC(=O)NC8=O)c(Cl)c7)CC6)C5)cn4)cccc32)nn2c(C(=O)N[C@@H]3C[C@@H]3F)cnc12 [I-896]	D (D (<50%))	> 100	–	–	–
CNc1cc(N2CCc3c(-c4ccc(CN5CC6(CCN(C(=O)c7cncc(N8CCC(=O)NC8=O)c7)CC6)C5)cn4)cccc32)nn2c(C(=O)N[C@@H]3C[C@@H]3F)cnc12 [I-353]	D (D (<50%))	> 100	–	–	–
CNc1cc(N2CCc3c(CN4CCC(N5CC(C6CCN(C(=O)c7ccc(Cl)c(N8CCC(=O)NC8=O)c7)CC6)C5)C(F)(F)C4)cccc32)nn2c(C(=O)N[C@@H]3C[C@@H]3F)cnc12 (stereo partly shown) [I-791]	–	–	A (A (>90%))	< 1	–
CNc1cc(N2CCc3c(-c4ccc(CN5CCC6(CCN(C(=O)c7cc(C)c(OC)c(N8CCC(=O)NC8=O)c7)CC6)C(F)(F)C5)cn4)cccc32)nn2c(C(=O)N[C@@H]3C[C@@H]3F)cnc12 [I-757]	–	–	B (B (90 to >75%))	< 10	–
CNc1cc(N2CCc3c(CN4CCC(N5CCC(N6CCN(c7ccc8c(c7)n(C)c(=O)n8C7CCC(=O)NC7=O)CC6)CC5)C(F)(F)C4)cccc32)nn2c(C(=O)NC3CC3)cnc12 (stereo not shown) [I-62]	B (B (90 to >75%))	< 1	–	–	–
CNc1cc(N2CCc3c(CN4CCC(N5CCC6(CCN(C(=O)c7cc(N8CCC(=O)NC8=O)c(Cl)c(C)n7)CC6)CC5)C(F)(F)C4)cc(F)cc32)nn2c(C(=O)N[C@@H]3CC[C@H]3OC)cnc12 (stereo partly shown) [I-1159]	A (A (>90%))	< 1	–	–	–
CNc1cc(N2CCc3c(-c4ncc(CN5CCC6(CCN(C(=O)c7cc(C)c(Cl)c(N8CCC(=O)NC8=O)c7)CC6)C(F)(F)C5)cc4Cl)cccc32)nn2c(C(=O)N[C@@H]3C[C@@H]3F)cnc12 [I-746]	–	–	B (B (90 to >75%))	< 10	–
CNc1cc(N2CCc3c(CN4CCC(N5CCC6(CCN(C(=O)c7cc(C)c(C)c(N8CCC(=O)NC8=O)c7)CC6)CC5)C(F)(F)C4)cccc32)nn2c(C(=O)N[C@@H]3CC[C@H]3OC)cnc12 (stereo partly shown) [I-995]	A (A (>90%))	< 1	–	–	–
CNc1cc(N2CCc3c(-c4ccc(N5CC6(CCN(C(=O)c7ccc(N8CCC(=O)NC8=O)c(Cl)c7)CC6)C5)cn4)cccc32)nn2c(C(=O)N[C@@H]3C[C@@H]3F)cnc12 [I-892]	B (B (90 to >75%))	< 10	–	–	–
CNc1cc(N2CCc3c(CN4CCC(CN5CC6(CCN(C(=O)c7ccc(Cl)c(N8CCC(=O)NC8=O)c7)CC6)C5)CC4)cccc32)nn2c(C(=O)N[C@@H]3C[C@@H]3F)cnc12 [I-894]	B (B (90 to >75%))	< 10	–	–	–
CNc1cc(N2CCc3c(N4CCN(CCC5CC6(CCN(C(=O)c7ccc(Cl)c(N8CCC(=O)NC8=O)c7)CC6)C5)CC4)cccc32)nn2c(C(=O)N[C@@H]3C[C@@H]3F)cnc12 [I-887]	B (B (90 to >75%))	< 10	–	–	–
CNc1cc(N2CCc3c(-c4ccc(CN5CCC(N6CCC7(CC6)CN(c6cccc8c6n(C)c(=O)n8C6CCC(=O)NC6=O)C7)C(F)(F)C5)cn4)cccc32)nn2c(C(=O)N[C@@H]3C[C@@H]3F)cnc12 (stereo partly shown) [I-280]	B (B (90 to >75%))	< 10	–	–	–
CNc1cc(N2CCc3c(-c4ccc(CN5CCC6(CC5)CCN(C(=O)c5ccc(Cl)c(N7CCC(=O)NC7=O)c5)C6)cn4)cccc32)nn2c(C(=O)N[C@H]3C[C@H]3F)cnc12 [I-82]	B (B (90 to >75%))	< 1	–	–	–

SMILES	TYK2 MSD OCI-LY10 Dmax % [1]	DC50 [1] [nM]	TYK2 MSD OCI-LY10 Dmax % (OCI-LY10 cells)	DC50 (OCI-LY10 cells) [nM]	Dmax [1] [%]
CNc1cc(N2CCc3c(-c4cc(CN5CCN(c6ccc7c(c6)n(C)c(=O)n7C6CCC(=O)NC6=O)CC5)ccn4)cccc32)nn2c(C(=O)NC3CC3)cnc12 (stereo not shown) [I-68]	B (B (90 to >75%))	< 1	–	–	–
CNc1cc(N2CCc3c(N4CCN(C5CCN(C(=O)c6ccc(Cl)c(N7CCC(=O)NC7=O)c6)CC5)CC4)cccc32)nn2c(C(=O)N[C@@H]3C[C@@H]3F)cnc12 [I-94]	D (D (<50%))	> 100	–	–	–
CNc1cc(N2CCc3c(CN4CCC(N5CCN(Cc6ccc(Cl)c(C7CCC(=O)NC7=O)c6)CC5)C(F)(F)C4)cccc32)nn2c(C(=O)NC3CC3F)cnc12 (stereo not shown) [I-421]	–	–	D (D (<50%))	> 100	–
CNc1cc(N2CCc3c(CN4CC[C@@H](N5CCC6(CCN(C(=O)c7cc(N8CCC(=O)NC8=O)c(Cl)cn7)CC6)CC5)C(F)(F)C4)cc(F)cc32)nn2c(C(=O)N[C@@H]3CC[C@H]3OC)cnc12 [I-1147]	A (A (>90%))	< 1	–	–	–
CNc1cc(N2CCc3c(-c4cnc(CN5CC6(CCN(C(=O)c7ccc(Cl)c(N8CCC(=O)NC8=O)c7)CC6)C5)nc4)cccc32)nn2c(C(=O)N[C@@H]3C[C@@H]3F)cnc12 [I-465]	–	–	B (B (90 to >75%))	< 10	–
CNc1cc(N2CCc3c(-c4ccc(CC5CCC6(CC5)CCN(C(=O)c5ccc(Cl)c(N7CCC(=O)NC7=O)c5)CC6)cn4)cccc32)nn2c(C(=O)N[C@@H]3C[C@@H]3F)cnc12 [I-654]	–	–	B (B (90 to >75%))	< 10	–
CNc1cc(-c2cn(CC3CCN(C4CCN(C(=O)c5ccc(Cl)c(N6CCC(=O)NC6=O)c5)CC4)CC3)c3ccccc23)nn2c(C(=O)N[C@@H]3C[C@@H]3F)cnc12 [I-768]	–	–	D (D (<50%))	> 100	–
CNc1cc(N2CCc3c2cccc3C23CC(CN4CCN(C5CCN(C(=O)c6ccc(Cl)c(N7CCC(=O)NC7=O)c6)CC5)CC4)(C2)C3)nn2c(C(=O)N[C@@H]3C[C@@H]3F)cnc12 [I-823]	A (A (>90%))	< 1	–	–	–
CNc1cc(N2CCc3c(CN4CCC(N5CCC(CC#Cc6ccc7c(c6)n(C)c(=O)n7C6CCC(=O)NC6=O)CC5)C(F)(F)C4)cccc32)nn2c(C(=O)N[C@@H]3C[C@@H]3F)cnc12 (stereo partly shown) [I-368]	D (D (<50%))	> 100	–	–	–
CNc1cc(N2CCc3c(-c4ncc(CN5CC6(CCN(C(=O)c7cc(C)c(Cl)c(N8CCC(=O)NC8=O)c7)CC6(F)F)C5)cc4F)cccc32)nn2c(C(=O)N[C@@H]3C[C@@H]3F)cnc12 [I-813, 6-(4-(5-((7-(4-chloro-3-(2,4-dioxotetrahydropyrimidin-1(2H)-yl)-5-methylbenzoyl)-5,5-difluoro-2,7-diazaspiro[3.5]nonan-2-yl)methyl)-3-fluoropyridin-2-yl)indolin-1-yl)-N-((1R,2S)-2-fluorocyclopropyl)-8-(methylamino)imidazo[1,2-b]pyridazine-3-carboxamide]	–	< 1	–	–	> 90
CNc1cc(N2CCc3c(CN4CCC(CN5CCC6(CC5)CN(C(=O)c5ccc(Cl)c(N7CCC(=O)NC7=O)c5)C6)CC4)cccc32)nn2c(C(=O)N[C@@H]3C[C@@H]3F)cnc12 [I-893]	D (D (<50%))	> 100	–	–	–
CNc1cc(N2CCc3c(CN4CCC(N5CCC6(CCN(C(=O)c7ccc(Cl)c(N8CCC(=O)NC8=O)c7)CC6)CC5)CC4)cccc32)nn2c(C(=O)N[C@@H]3C[C@@H]3F)cnc12 [I-802]	B (B (90 to >75%))	< 10	–	–	–
CNc1cc(-c2cn(C3CCN(CC4CCN(C(=O)c5ccc(Cl)c(N6CCC(=O)NC6=O)c5)CC4)CC3)c3ccccc23)nn2c(C(=O)N[C@@H]3C[C@@H]3F)cnc12 [I-789]	–	–	D (D (<50%))	> 100	–
CNc1cc(N2CCc3c(-c4ncc(CN5CC6(CCN(C(=O)c7cc(N8CCC(=O)NC8=O)c(Cl)c(C)n7)CC6(F)F)C5)cc4F)cc(F)cc32)nn2c(C(=O)N[C@@H]3CC[C@H]3OC)cnc12 [I-1151]	A (A (>90%))	< 1	–	–	–
CNc1cc(N2CCc3c(CN4CCC(N5CCC6(CCN(C(=O)c7cc(N8CCC(=O)NC8=O)c(Cl)c(C)n7)CC6)CC5)C(F)(F)C4)cccc32)nn2c(C(=O)N[C@@H]3CC[C@H]3OC)cnc12 (stereo partly shown) [I-1157]	A (A (>90%))	< 1	–	–	–
CNc1cc(N2CC3(CCN(CCc4cccc5c4n(C)c(=O)n5C4CCC(=O)NC4=O)CC3)c3ccccc32)nn2c(C(=O)NC3CC3)cnc12 (stereo not shown) [I-41]	D (D (<50%))	> 100	–	–	–
CNc1cc(N2CCc3c2ccc(F)c3CN2CCC(N3CCC4(CCN(C(=O)c5ccc(Cl)c(N6CCC(=O)NC6=O)c5)CC4)CC3)C(F)(F)C2)nn2c(C(=O)N[C@@H]3C[C@@H]3F)cnc12 (stereo partly shown) [I-750]	–	–	A (A (>90%))	< 1	–
